From patent US20230027472A1, “TARGETING P73 FOR CANCERS RESISTANT TO BH3 MIMETICS” (BOARD OF REGENTS, THE UNIVERSITY OF TEXAS SYSTEM, priority 2019, published 2023) come the findings set out here.

Holding throughout (assay type): cell-based
Test [1] concerns OCI-AML3 cells. The experiment in a line: Annexin V staining and live cell counting by flow cytometry in OCI-AML3 cells with lentiviral p73 knockdown. The method, then: Apoptosis induction was measured by annexin V staining (Annexin V positive cells (%)), and live cell numbers were measured by counting beads by flow cytometry.
For test [2], the system named is MOLM-13 cells. In words: Sensitivity of MOLM-13 parent and ABT-199 resistant (ABTR) cells to ABT-199, annexin V and live cell numbers. The conditions noted are these: MOLM-13 ABTR cells versus parent. As to the method:
(§1) In FIG. 2A, there are immunoblot images of two AML cell lines (MOLM-13 and MV4;11 cells) that acquired ABT-199 resistance (ABTR) through long-term exposure to continuous treatment of ABT-199. Parental control cells (Parent) are used for comparison. Histone H3 (H3) serves as a loading control, and relative protein levels were measured as ratios of target proteins and H3 through densitometry. […] In FIG. 2B, there is shown sensitivity of MOLM-13 and MV4;11 parent and ABTR cells to ABT-199. Apoptosis induction was measured by annexin V staining (Annexin V positive cells (%)), and live cell numbers were measured by counting beads by flow cytometry.

The test system of the next test is MV4;11 cells. In words: Sensitivity of MV4;11 parent and ABT-199 resistant (ABTR) cells to ABT-199, annexin V and live cell numbers. The conditions noted are these: MV4;11 ABTR cells versus parent. The method, then:
as §1

For test [3], the system named is MOLM-13 cells. In words: Sensitivity to ABT-199 in MOLM-13 cells with overexpression of p73 isoforms/variants, annexin V and live cell numbers. The method, then:
In FIG. 3A, there are immunoblot images of different p73 N-terminal isoforms (TA and ΔN) and C-terminal variants (α, β and γ) protein levels. MOLM13 cells with overexpression of those p73 isoforms/variants was generated by lentiviral transfection. β-actin serves as a loading control. Successful overexpression of p73 isoforms/variants in MOLM-13 cells, which are originally sensitive to ABT-199. […] Apoptosis induction was measured by annexin V staining (Annexin V positive cells (%)), and live cell numbers were measured by counting beads by flow cytometry. […] A p73 isoform ΔNp73γ overexpression induced resistance to ABT-199, indicating a novel resistance mechanism by p73 isoforms/variants to ABT-199 in AML cells.

In test [4] the test system is OCI-AML3 cells. In words: Apoptosis induction by Nutlin-3a (specific annexin V induction) in OCI-AML3 cells with vector control or p73 knockdown. The following applies: 5 μM Nutlin-3a. An excerpt: (§2) To further explore the regulation of TP73 isoforms, the inventors used MDM2 inhibitor Nutlin-3a to induce p53 which is a transcriptional inducer of ΔNp73.
For a further test, the system named is p73. In words: p73 protein levels after MDM2 inhibition in AML cells.
Excerpt: as §2

For another test, the system named is TAp73 and ΔNp73. In words: TAp73 and ΔNp73 levels in AML cells after (R)-2HG treatment. An excerpt:
Results The inventors determined copy numbers of ΔNp73 and TAp73 mRNA levels in 78 AML samples including 31 de novo AML using droplet digital PCR (ddPCR), which allows to determine the absolute quantity of the isoforms expressed, and investigated their clinical and biological relevance. ΔNp73 and TAp73 expression was detected in 93.6% and 98.7% of AML samples at variable levels (mean±SEM, 10.6±5.0, and 106.6±33.7 copies/μL, for ΔNp73 and TAp73, respectively). ΔNp73 and TAp73 mRNA levels were highly correlated (R^2=0.72, P<0.0001). […] However, AML with IDH1/2 mutations had 8.5-fold lower ΔNp73 expression than those with wild-type IDH1/2 (1.8±0.8 vs 15.4±7.7 copies/μL, P=0.0069), with a similar trend for TAp73 (49.0±20.3 vs 138.6±51.4 copies/μL, P=0.056). […] To further explore the regulation of TP73 isoforms, the inventors used MDM2 inhibitor Nutlin-3a to induce p53 which is a transcriptional inducer of ΔNp73. […] AML cells with IDH1/2 mutations are more dependent on Bcl-2 than those without (Chan, Nat Med 2015).

A further test deals with AML cells. The experiment in a line: Susceptibility of AML cells to Bcl-2 inhibitor ABT-199 (VEN) after (R)-2HG treatment. The conditions noted are these: AML cells treated with 2HG.

`CC1(C)CCC(CN2CCN(c3ccc(C(=O)NS(=O)(=O)c4ccc(NCC5CCOCC5)c([N+](=O)[O-])c4)c(Oc4cnc5[nH]ccc5c4)c3)CC2)=C(c2ccc(Cl)cc2)C1` [ABT-199]: the “sensitivity to VEN” value in the test on OCI-AML3 cells [1] (lentiviral knockdown of p73) is given as “enhanced sensitivity”. Also, the “apoptosis induction (Annexin V positive cells), p73 knockdown versus control” value with OCI-AML3 cells [1] (p73 knockdown) was “greater”. Also, in the test on OCI-AML3 cells [1] (p73 knockdown), the “live cell numbers, p73 knockdown versus control” value was “superior reduction of live cell numbers”. In addition, the “sensitivity to ABT-199 (apoptosis, live cell numbers)” value in the test on MOLM-13 cells [2] was “clearly show resistance”; in the test on MV4;11 cells, “clearly show resistance”; in the test with MOLM-13 cells [3] (MOLM-13 cells with TAp73α overexpression) it was “still sensitive”; with MOLM-13 cells [3] (MOLM-13 cells with TAp73α overexpression, listed as VEN), “minimally increased VEN-induced apoptosis”; with MOLM-13 cells [3] (MOLM-13 cells with vector control), “still sensitive”; with MOLM-13 cells [3] (MOLM-13 cells with ΔNp73β overexpression) it was “still sensitive”. Besides, the “sensitivity to ABT-199 (apoptosis, live cell numbers)” value was “resistant” in the test on MOLM-13 cells [3] (MOLM-13 cells with ΔNp73γ overexpression) and “striking resistance” with MOLM-13 cells [3] (MOLM-13 cells with ΔNp73γ overexpression, listed as VEN).
Take `Nc1ncn([C@@H]2O[C@H](CO)[C@@H](O)[C@H]2O)c(=O)n1` [5′-azacitidine]: the “apoptosis induction (Annexin V positive cells), p73 knockdown versus control” value in the test with OCI-AML3 cells [1] (p73 knockdown) is reported as “enhances apoptosis induction”.
For the compound `COc1ccc(C2=N[C@@H](c3ccc(Cl)cc3)[C@@H](c3ccc(Cl)cc3)N2C(=O)N2CCNC(=O)C2)c(OC(C)C)c1` [Nutlin-3a], the “specific annexin V induction” value in the test with OCI-AML3 cells [4] (OCI-AML3 cells with Shp73 (knockdown of TAp73 and ΔNp73)) was found to be 61.3±5.2%; with OCI-AML3 cells [4] (OCI-AML3 cells with vector control), 21.9±1.3%. In the test on p73, the p73 protein levels entry is recorded as “increased p73 protein levels”.
For `O=C(O)CC[C@@H](O)C(=O)O` [(R)-2HG], the “TAp73 and ΔNp73 levels” value with TAp73 and ΔNp73 is “reduced both TAp73 and ΔNp73”. Moreover, the “susceptibility to the Bcl-2 inhibitor ABT-199 (VEN)” value with AML cells is reported as “increased susceptibility”.
Turning to `CCCCCCCCOC(=O)[C@H](O)CCC(=O)O` [octyl-(R)-2HG], the “TAp73 and ΔNp73 levels” value with TAp73 and ΔNp73 is “reduced both TAp73 and ΔNp73”. Further, the “susceptibility to the Bcl-2 inhibitor ABT-199 (VEN)” value in the test on AML cells is recorded as “increased susceptibility”.
